Literature values, collected in US20040014215A1, “Synchronised arabidopsis cell suspensions and uses thereof” (priority 2000, published 2004).

Key:
[1] = system: Arabidopsis cell suspension cultures; conditions: low concentration of cycloheximide, release by washing; cited from earlier work
[2] = system: purified CDK/cyclin complexes; conditions: cited from earlier work
cell cycle = conditions: phase of the cell cycle at which cells are arrested; cited from earlier work
[3] = system: plant cells derived from a petunia protoplast culture; conditions: cited from earlier work
tobacco BY-2 cell line = conditions: BY-2 pre-synchronised with aphidicolin, then propyzamide for a few hours and removal; cited from earlier work

C[C@@H]1C[C@@H]([C@H](O)CC2CC(=O)NC(=O)C2)C(=O)[C@@H](C)C1 [cycloheximide]
peak mitotic index [1]: 9%

CC[C@H](CO)Nc1nc(NCc2ccccc2)c2ncn(C(C)C)c2n1 [roscovitine]
histone H1 kinase activity [2]: inhibit the histone H1 kinase activity

NC(Cn1ccc(=O)c(O)c1)C(=O)O (stereo not drawn) [mimosine]
cell cycle arrest (cell cycle): early S | cell cycle block [3]: reversible block during G1 and in early/mid S-phase

NC(=O)NO [hydroxyurea]
cell cycle arrest (cell cycle): G1/S phase boundary

C#CC(C)(C)NC(=O)c1cc(Cl)cc(Cl)c1 [propyzamide]
mitotic index (tobacco BY-2 cell line): 80-90%
